Source: patent US7612097B2, “Method for producing bactericidal pyridine compound and bactericidal pyridine compound” (Tama Kagaku Kogyo Co., Ltd., priority 2003, dated 2009)
Converted amounts (≈) assume the structure as drawn.

Columns and labels:
Type in all cases: cell-based
Bacillus cereus IFO 3001 [1] = assay: Bacteriostatic activity MIC, broth dilution; conditions: nutrient broth, 37° C., 24 hours
Experimental: (§1) Using benzalkonium chloride as a control compound, minimum inhibitory concentrations (MICs) were determined.
(§2) Each minimum inhibitory concentration (MIC) was determined as will be described hereinafter. Aliquots of a suspension of stationary-phase cells, the cell concentration of which had been adjusted to 10^6 cells/mL with nutrient broth in accordance with the general broth dilution method, were mixed with serially-diluted solutions of a compound, respectively. Subsequent to stationary culture at 37° C. for 24 hours, the MIC value was determined depending upon whether or not any growth had taken place.
(§3) As test microorganisms, ten (10) Gram-negative bacteria and six (6) Gram-positive bacteria were used.

[2] = test system: Bacillus subtilis ATCC 6633; assay: Bacteriostatic activity MIC, broth dilution; conditions: nutrient broth, 37° C., 24 hours
Experimental: as §1, §2, §3

[3] = test system: Bacillus subtilis IFO 3134; assay: Bacteriostatic activity MIC, broth dilution; conditions: nutrient broth, 37° C., 24 hours
Experimental: as §1, §2, §3

[4] = test system: Escherichia coli K12 OUT 8401; assay: Bacteriostatic activity MIC, broth dilution; conditions: nutrient broth, 37° C., 24 hours
Experimental: as §1, §2, §3

[5] = test system: Escherichia coli K12 W3110; assay: Bacteriostatic activity MIC, broth dilution; conditions: nutrient broth, 37° C., 24 hours
Experimental: as §1, §2, §3

[6] = test system: Klebsiella pneumoniae ATCC 13883; assay: Bacteriostatic activity MIC, broth dilution; conditions: nutrient broth, 37° C., 24 hours
Experimental: as §1, §2, §3

[7] = test system: Klebsiella pneumoniae ATCC 4352; assay: Bacteriostatic activity MIC, broth dilution; conditions: nutrient broth, 37° C., 24 hours
Experimental: as §1, §2, §3

[8] = test system: Micrococcus luteus IFO 12708; assay: Bacteriostatic activity MIC, broth dilution; conditions: nutrient broth, 37° C., 24 hours
Experimental: as §1, §2, §3

[9] = test system: Proteus mirabilis IFO 3849; assay: Bacteriostatic activity MIC, broth dilution; conditions: nutrient broth, 37° C., 24 hours
Experimental: as §1, §2, §3

Proteus rettgeri NIH 96 [10] = assay: Bacteriostatic activity MIC, broth dilution; conditions: nutrient broth, 37° C., 24 hours
Experimental: as §1, §2, §3

[11] = test system: Proteus vulgaris ATCC 13315; assay: Bacteriostatic activity MIC, broth dilution; conditions: nutrient broth, 37° C., 24 hours
Experimental: as §1, §2, §3

[12] = test system: Pseudomonas aeruginosa ATCC 10145; assay: Bacteriostatic activity MIC, broth dilution; conditions: nutrient broth, 37° C., 24 hours
Experimental: as §1, §2, §3

[13] = test system: Pseudomonas aeruginosa ATCC 27583; assay: Bacteriostatic activity MIC, broth dilution; conditions: nutrient broth, 37° C., 24 hours
Experimental: as §1, §2, §3

[14] = test system: Pseudomonas aeruginosa ATCC 3080; assay: Bacteriostatic activity MIC, broth dilution; conditions: nutrient broth, 37° C., 24 hours
Experimental: as §1, §2, §3

[15] = test system: Staphylococcus aureus IFO 12732; assay: Bacteriostatic activity MIC, broth dilution; conditions: nutrient broth, 37° C., 24 hours
Experimental: as §1, §2, §3

[16] = test system: Staphylococcus aureus JCI (MRSA); assay: Bacteriostatic activity MIC, broth dilution; conditions: nutrient broth, 37° C., 24 hours
Experimental: as §1, §2, §3

Bacillus cereus IFO 3001 [17] = assay: Bactericidal activity MBC, dilution method; conditions: 30° C., 30 min
Experimental: as §2, with “Subsequent to stationary culture at 37° C. for 24 hours, the MIC value was determined depending upon whether or not any growth had taken place.” left out
(§4) As a control compound, benzalkonium bromide was used. Using five (5) Gram-negative bacteria and four (4) Gram-positive bacteria as test microorganisms, minimum bactericidal concentrations (MBCs) were determined in a similar manner as described above.

[18] = test system: Bacillus subtilis ATCC 6633; assay: Bactericidal activity MBC, dilution method; conditions: 30° C., 30 min
Experimental: as §2, with “Subsequent to stationary culture at 37° C. for 24 hours, the MIC value was determined depending upon whether or not any growth had taken place.” left out
as §4

[19] = test system: Bacillus subtilis IFO 3134; assay: Bactericidal activity MBC, dilution method; conditions: 30° C., 30 min
Experimental: as §2, with “Subsequent to stationary culture at 37° C. for 24 hours, the MIC value was determined depending upon whether or not any growth had taken place.” left out
as §4

[20] = test system: Escherichia coli K12 W3110; assay: Bactericidal activity MBC, dilution method; conditions: 30° C., 30 min
Experimental: as §2, with “Subsequent to stationary culture at 37° C. for 24 hours, the MIC value was determined depending upon whether or not any growth had taken place.” left out
as §4

[21] = test system: Klebsiella pneumoniae ATCC 13883; assay: Bactericidal activity MBC, dilution method; conditions: 30° C., 30 min
Experimental: as §2, with “Subsequent to stationary culture at 37° C. for 24 hours, the MIC value was determined depending upon whether or not any growth had taken place.” left out
as §4

Proteus rettgeri NIH 96 [22] = assay: Bactericidal activity MBC, dilution method; conditions: 30° C., 30 min
Experimental: as §2, with “Subsequent to stationary culture at 37° C. for 24 hours, the MIC value was determined depending upon whether or not any growth had taken place.” left out
as §4

[23] = test system: Pseudomonas aeruginosa ATCC 27583; assay: Bactericidal activity MBC, dilution method; conditions: 30° C., 30 min
Experimental: as §2, with “Subsequent to stationary culture at 37° C. for 24 hours, the MIC value was determined depending upon whether or not any growth had taken place.” left out
as §4

[24] = test system: Staphylococcus aureus IFO 12732; assay: Bactericidal activity MBC, dilution method; conditions: 30° C., 30 min
Experimental: as §2, with “Subsequent to stationary culture at 37° C. for 24 hours, the MIC value was determined depending upon whether or not any growth had taken place.” left out
as §4

[25] = test system: Escherichia coli K12 OUT 8401; assay: Bactericidal activity MBC, dilution method; conditions: 30° C., 30 min
Experimental: as §2, §4

[26] = test system: Aspergillus niger IFO 6341; assay: Antimold MIC against eumycetes, broth dilution; conditions: Sabouraud medium, 30° C., 7 days
Experimental: (§5) As a control compound, TBZ (2-(4′-thiozolyl)benzimidazole) was used. Each minimum inhibitory concentration (MIC) was determined as will be described hereinafter. Following the general broth dilution method, each test microorganisms which had been precultured with Sabouraud medium was diluted with humectant-added, sterilized water to prepare a spore suspension. Aliquots (1 mL) of diluted solutions of a compound were mixed with 1-mL aliquots of the spore suspension, respectively. After incubating the mixtures at 30° C. for 1 week in an incubator, turbidity was relied upon to determine whether or not any growth had taken place. The turbidity-free lowest concentration was recorded as MIC.

[27] = test system: Aspergillus niger TSY 0013; assay: Antimold MIC against eumycetes, broth dilution; conditions: Sabouraud medium, 30° C., 7 days
Experimental: as §5

[28] = test system: Aspergillus terreus IFO 6346; assay: Antimold MIC against eumycetes, broth dilution; conditions: Sabouraud medium, 30° C., 7 days
Experimental: as §5

[29] = test system: Aureobasidium pullulans IFO 6353; assay: Antimold MIC against eumycetes, broth dilution; conditions: Sabouraud medium, 30° C., 7 days
Experimental: as §5

[30] = test system: Chaetomium globosum IFO 6347; assay: Antimold MIC against eumycetes, broth dilution; conditions: Sabouraud medium, 30° C., 7 days
Experimental: as §5

[31] = test system: Cladosporium cladosporioides IFO 6348; assay: Antimold MIC against eumycetes, broth dilution; conditions: Sabouraud medium, 30° C., 7 days
Experimental: as §5

[32] = test system: Gliocladium virides IFO 6355; assay: Antimold MIC against eumycetes, broth dilution; conditions: Sabouraud medium, 30° C., 7 days
Experimental: as §5

[33] = test system: Penicillium funiculosum IFO 6345; assay: Antimold MIC against eumycetes, broth dilution; conditions: Sabouraud medium, 30° C., 7 days
Experimental: as §5

Rhizopus nigricans SN 32 = assay: Antimold MIC against eumycetes, broth dilution; conditions: Sabouraud medium, 30° C., 7 days
Experimental: as §5

[34] = test system: Trichoderma virides IFO 30498; assay: Antimold MIC against eumycetes, broth dilution; conditions: Sabouraud medium, 30° C., 7 days
Experimental: as §5

| Compound | MIC (Bacillus cereus IFO 3001 [1]) [µM] | MIC [2] [µM] | MIC [3] [µM] | MIC [4] [µM] | MIC [5] [µM] | MIC [6] [µM] | MIC [7] [µM] | MIC [8] [µM] | MIC [9] [µM] | MIC (Proteus rettgeri NIH 96 [10]) [µM] | MIC [11] [µM] | MIC [12] [µM] | MIC [13] [µM] | MIC [14] [µM] | MIC [15] [µM] | MIC [16] [µM] | MBC (Bacillus cereus IFO 3001 [17]) [µM] | MBC [18] [µM] | MBC [19] [µM] | MBC [20] [µM] | further results |
| --- | --- | --- | --- | --- | --- | --- | --- | --- | --- | --- | --- | --- | --- | --- | --- | --- | --- | --- | --- | --- | --- |
| CCCCCCCC[n+]1cccc(COCCCCOCc2ccc[n+](CCCCCCCC)c2)c1.[Br-].[Br-] [Compound 7-A] | 0.45 | 0.45 | 0.5 | 0.9 | 0.9 | 1.8 | 1.8 | 0.2 | 6.25 | 3.6 | 3.6 | 6.25 | 6.25 | 6.25 | 0.45 | 0.4 | 0.9 | 0.9 | 0.9 | 1.8 | MBC [21]: 3.6 µM; MBC (Proteus rettgeri NIH 96 [22]): 3.6 µM; MBC [23]: 3.6 µM; MBC [24]: 0.9 µM; MBC [25]: 1.8 µM; MIC [26]: 3.6 µM; MIC [27]: 3.6 µM; MIC [28]: 3.6 µM; MIC [29]: 3.6 µM; MIC [30]: 3.6 µM; MIC [31]: 3.6 µM; MIC [32]: 3.6 µM; MIC [33]: 3.6 µM; MIC (Rhizopus nigricans SN 32): 6.25 µM; MIC [34]: 6.25 µM |
| CCCCCCCC[n+]1ccc(COCCCCOCc2cc[n+](CCCCCCCC)cc2)cc1.[Br-].[Br-] [Compound 7-B] | 0.45 | 0.45 | 0.45 | 0.9 | 0.9 | 3.6 | 1.8 | 0.2 | 6.25 | 3.6 | 3.6 | 3.6 | 3.6 | 6.25 | 0.45 | 0.45 | 0.9 | 0.9 | 0.9 | 1.8 | MBC [21]: 3.6 µM; MBC (Proteus rettgeri NIH 96 [22]): 3.6 µM; MBC [23]: 3.6 µM; MBC [24]: 0.9 µM; MBC [25]: 1.8 µM; MIC [26]: 3.6 µM; MIC [27]: 3.6 µM; MIC [28]: 3.6 µM; MIC [29]: 3.6 µM; MIC [30]: 3.6 µM; MIC [31]: 3.6 µM; MIC [32]: 3.6 µM; MIC [33]: 3.6 µM; MIC (Rhizopus nigricans SN 32): 6.25 µM; MIC [34]: 6.25 µM |
| CCCCCCCCCC[n+]1cccc(COCCCCOCc2ccc[n+](CCCCCCCCCC)c2)c1.[Br-].[Br-] [Compound 7-C] | 0.2 | 0.1 | 0.2 | 0.45 | 0.45 | 1.8 | 0.45 | 0.1 | 1.8 | 0.9 | 0.45 | 1.8 | 1.8 | 0.9 | 0.2 | 0.45 | 0.2 | 0.2 | 0.45 | 0.45 | MBC [21]: 0.9 µM; MBC (Proteus rettgeri NIH 96 [22]): 0.9 µM; MBC [23]: 0.9 µM; MBC [24]: 0.2 µM; MBC [25]: 0.45 µM; MIC [26]: 1.8 µM; MIC [27]: 1.8 µM; MIC [28]: 0.9 µM; MIC [29]: 1.8 µM; MIC [30]: 0.9 µM; MIC [31]: 0.9 µM; MIC [32]: 1.8 µM; MIC [33]: 1.8 µM; MIC (Rhizopus nigricans SN 32): 1.8 µM; MIC [34]: 0.9 µM |
| c1ccc2[nH]c(-c3cscn3)nc2c1 [TBZ, 2-(4′-thiozolyl)benzimidazole, reference compound] |  |  |  |  |  |  |  |  |  |  |  |  |  |  |  |  |  |  |  |  | MIC [26]: 25.6 µM (≈ 5.15 µg/mL); MIC [27]: 102.4 µM (≈ 20.6 µg/mL); MIC [28]: 25.6 µM (≈ 5.15 µg/mL); MIC [29]: 0.8 µM (≈ 0.161 µg/mL); MIC [30]: 3.2 µM (≈ 0.644 µg/mL); MIC [31]: 3.2 µM (≈ 0.644 µg/mL); MIC [32]: 3.2 µM (≈ 0.644 µg/mL); MIC [33]: 1.6 µM (≈ 0.322 µg/mL); MIC (Rhizopus nigricans SN 32): 102.4< μM; MIC [34]: 51.2 µM (≈ 10.3 µg/mL) |
| benzalkonium chloride [reference compound] | 6.4 | 6.4 | 6.4 | 12.8 | 25.6 | 102.4 | 12.8 | 6.4 | 204.8 | 51.2 | 16.4 | 51.2 | 51.2 | 102.4 | 6.4 | 12.8 |  |  |  |  |  |
| benzalkonium iodide [reference compound] |  |  |  |  |  |  |  |  |  |  |  |  |  |  |  |  | 25.6 | 0.8 | 1.6 | 204.8 | MBC [21]: 102.4 µM; MBC (Proteus rettgeri NIH 96 [22]): 51.2 µM; MBC [23]: 204.8 µM; MBC [24]: 6.4 µM; MBC [25]: 51.2 µM |
